The text below walks through data of patent US6521670B1, “Insect control method and composition” (BioAdvantage, Inc., priority 2000, dated 2003).

The assay has as its system flies, bees, wasps, and other winged insects. The experiment in a line: vaporized 1,4-DMN treatment of a closed potato storage facility. The assay is classed as in vivo. The method, then: The concentration of vapor of 1,4-DMN in the atmosphere of the storage facility was rather low. […] In the experiment, 500 milliliters and 188 milliliters of 1,4-DMN were vaporized and used. Both concentrations were effective. The facility was in a closed state for about 48 hours.
The ventilation system of the storage facility had been shut off so that there was no fresh air entering the building and the building was not being evacuated during the 1,4-DMN vapor treatment. The effect of the 1,4-DMN on insects within the storage facility was fairly immediate with substantially all the insects being killed within about 24 hours. In regions or facilities with dangerous insects, or where there is a large concentration of less-dangerous insects, such as bees, wasps and the like, which would create risks to workers, a closed facility may be treated to make it safe. Dangerous insects such as spiders, scorpions and the like may also effectively be treated in this manner with 1,4-DMN.

Some results are limits rather than exact numbers.

Turning to `Cc1ccc(C)c2ccccc12` [1,4-DMN, 1,4-dimethylnaphthalene], the “time until substantially all the insects were killed” value (1,4-DMN vapor treatment, closed storage facility without ventilation) was no more than 24 h. Also, the “insecticidal effectiveness of vapor treatment” value by setting is: (188 milliliters of 1,4-DMN vaporized, head space about 9,000 cubic feet, closed about 48 hours) “effective”; (500 milliliters of 1,4-DMN vaporized, head space about 9,000 cubic feet, closed about 48 hours) “effective”. Further, the “effect of vaporized 1,4-DMN on insects contained within a potato storage facility” value (vapor, closed facility of approximately 10,000 cubic feet, head space about 9,000 cubic feet, closed about 48 hours, ventilation shut off) is on record as “killed or placed in a state of stupor”.
